Experimental data reported in paper PMC4277729 (Bioorganic & medicinal chemistry letters, 2014).
≈ marks a conversion by molar mass, not a printed value. One block for each compound: values may come before it.

How the values were obtained:
[1] = target: T1, chxEH (Gallus gallus, UniProt Q45QT1); test: kinetic constants of chxEH for epoxy-fatty acid substrate; assay type: biochemical, chicken; conditions: chxEH's best substrate
[2] = target: T1, chxEH; test: FRET-based competitive displacement assay with reporter ligand ACPU
[3] = target: chicken sEH (chxEH) (Gallus gallus, UniProt Q45QT1); test: chxEH inhibition, fluorescent substrate PHOME; assay type: biochemical
[4] = solubility by turbidity measurement at 600 nm; assay type: physicochemical; conditions: sodium phosphate buffer, pH 7.4
[5] = substrate of recombinant purified chicken sEH

Km [1]: 12 ± 3 µM | Vmax [1]: 728 ± 97 nmol/min/mg
SMILES: CCC=CCC1OC1CC=CCC=CCC=CCC=CCCC(=O)O (centres unmarked) [16,17-epoxy-docosapentaenoic acid]

Kd [2]: 0.283 nM
SMILES: O=C(NC1CCN(C(=O)Cc2cc(=O)oc3cc(O)ccc23)CC1)NC12CC3CC(CC(C3)C1)C2 [ACPU]

SMILES: O=C(O)CCCCCCCCCCCNC(=O)NC12CC3CC(CC(C3)C1)C2 [AUDA]
IC50 [3]: 12 nM | solubility [4]: 37.5 to 50 µM (≈ 14.7 to 19.6 µg/mL)

Km [3, 5]: 1.5 ± 0.3 µM | Vmax [3, 5]: 60 ± 4 nmol/min/mg
SMILES: COc1ccc2cc(C(C#N)OC(=O)CC3OC3c3ccccc3)ccc2c1 (centres unmarked) [PHOME, (3-phenyl-oxiranyl)-acetic acid cyano-(6-methoxy-naphthalen-2-yl)-methyl ester]

SMILES: CCC(=O)N1CCC(NC(=O)Nc2ccc(OC(F)(F)F)cc2)CC1 [TPPU]
inhibition of chxEH ([3]; inhibitor 100 nM, chxEH 1.4 nM, primary screen, endpoint mode): 15%
